Laboratory results as given in PubChem BioAssay AID248 (DTP/NCI, 2004).
Several values for one entry are separate records, joined by “and”; a condition that tells them apart may be missing. Equal values may be shown once. Toxic doses and inconclusive results are not listed. Rule as the data show it: active = T/C of 150% or more; inactive = T/C below 125%.

Tested on: L1210 leukemia ip in BDF1 mice, survival T/C
Test: NCI In Vivo Anticancer Drug Screen. Data for tumor model L1210 Leukemia (intraperitoneal) in B6D2F1 (BDF1) mice
Details: endpoint: mean survival time, higher = longer survival
In short: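 Survival endpoint. Drug-treated group vs vehicle group, expressed as T divided by C. Tumor passaged by transplantation.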

[1] = dose: 100.0 mg/kg/injection, schedule: Q01DX009 (ip), vehicle: saline with Tween-80
[2] = dose: 200.0 mg/kg/injection, schedule: Q01DX009 (ip), vehicle: saline with Tween-80
[3] = dose: 400.0 mg/kg/injection, schedule: Q01DX009 (ip), vehicle: saline with Tween-80
[4] = dose: 100.0 mg/kg/injection, schedule: Q01DX009 (ip), vehicle: Klucel (hydroxypropylcellulose) (HPC)
[5] = dose: 200.0 mg/kg/injection, schedule: Q01DX009 (ip), vehicle: Klucel (hydroxypropylcellulose) (HPC)
[6] = dose: 400.0 mg/kg/injection, schedule: Q01DX009 (ip), vehicle: Klucel (hydroxypropylcellulose) (HPC)
[7] = dose: 50.0 mg/kg/injection, schedule: Q01DX009 (ip), vehicle: saline with Tween-80
[8] = dose: 100.0 mg/kg/injection, schedule: Q01DX001 (ip), vehicle: saline with Tween-80
[9] = dose: 100.0 mg/kg/injection, schedule: Q04DX003 (ip), vehicle: saline with Tween-80
[10] = dose: 200.0 mg/kg/injection, schedule: Q01DX001 (ip), vehicle: saline with Tween-80
[11] = dose: 200.0 mg/kg/injection, schedule: Q04DX003 (ip), vehicle: saline with Tween-80
[12] = dose: 400.0 mg/kg/injection, schedule: Q01DX001 (ip), vehicle: saline with Tween-80
[13] = dose: 400.0 mg/kg/injection, schedule: Q04DX003 (ip), vehicle: saline with Tween-80
[14] = dose: 100.0 mg/kg/injection, schedule: Q04DX003 (ip), vehicle: Klucel (hydroxypropylcellulose) (HPC)
[15] = dose: 200.0 mg/kg/injection, schedule: Q04DX003 (ip), vehicle: Klucel (hydroxypropylcellulose) (HPC)
[16] = dose: 400.0 mg/kg/injection, schedule: Q04DX003 (ip), vehicle: Klucel (hydroxypropylcellulose) (HPC)
[17] = dose: 100.0 mg/kg/injection, schedule: Q04DX002 (ip), vehicle: Klucel (hydroxypropylcellulose) (HPC)
[18] = dose: 200.0 mg/kg/injection, schedule: Q04DX002 (ip), vehicle: Klucel (hydroxypropylcellulose) (HPC)
[19] = dose: 400.0 mg/kg/injection, schedule: Q04DX002 (ip), vehicle: Klucel (hydroxypropylcellulose) (HPC)

Measured: T/C

Cc1ccc(S(=O)(=O)N2CC(O)C(O)C2CO)cc1 (stereo unspecified)
inactive: dose: 50.0 mg/kg/injection, schedule: Q01DX005 (ip), vehicle: saline 96 % of control | dose: 100.0 mg/kg/injection, schedule: Q01DX005 (ip), vehicle: saline 104 % of control | dose: 200.0 mg/kg/injection, schedule: Q01DX005 (ip), vehicle: saline 102 % of control

CCCCOC(=O)CCSCCC(=O)OCCCC
inactive: [1] 102 % of control | [2] 94 % of control | [3] 102 % of control

CCC1(C)CC=C2C(=CCC3C(C)(CO)CCCC23C)C1 (stereo unspecified)
inactive: dose: 50.0 mg/kg/injection, schedule: Q04DX002 (ip), vehicle: other 104 % of control | dose: 100.0 mg/kg/injection, schedule: Q04DX002 (ip), vehicle: other 93 % of control | dose: 200.0 mg/kg/injection, schedule: Q04DX002 (ip), vehicle: other 96 % of control

O=C(O)c1cccc(OCCCOc2ccccc2)c1
inactive: [4] 92 % of control | [5] 90 % of control | [6] 95 % of control

CCOC(=O)CC1(C)NC(C(=O)O)C(C)(C)S1 (stereo unspecified)
inactive: [4] 97 % of control | [6] 97 % of control

C[C@]12CC[C@H]3[C@@H](CCC4=CC(=O)CC[C@@]43C(=O)F)[C@@H]1CC[C@@H]2O
inactive: dose: 100.0 mg/kg/injection, schedule: Q01DX001 (sc), vehicle: steriod suspending solution 97 % of control | dose: 200.0 mg/kg/injection, schedule: Q01DX001 (sc), vehicle: steriod suspending solution 100 % of control | dose: 400.0 mg/kg/injection, schedule: Q01DX001 (sc), vehicle: steriod suspending solution 97 % of control

COc1cccc(NC(=O)NC(C)(C)C)c1
inactive: [7] 95 % of control and 119 % of control | [8] 106 % of control | dose: 100.0 mg/kg/injection, schedule: Q04DX002 (ip), vehicle: saline with Tween-80 97 % of control and 103 % of control | [9] 105 % of control | [10] 100 % of control | dose: 200.0 mg/kg/injection, schedule: Q04DX002 (ip), vehicle: saline with Tween-80 94 % of control and 100 % of control | [11] 104 % of control | [12] 111 % of control | [3] 103 % of control and 108 % of control | dose: 400.0 mg/kg/injection, schedule: Q04DX002 (ip), vehicle: saline with Tween-80 97 % of control and 86 % of control | [13] 96 % of control

N#CC(CC(=O)c1ccc2c(c1)OCO2)c1ccc2c(c1)OCO2 (stereo unspecified)
inactive: [4] 101 % of control | [14] 95 % of control | [5] 101 % of control | [15] 98 % of control | [6] 97 % of control | [16] 101 % of control

O=C(Nc1ccc2c(c1)OCO2)O/N=C1\C(=O)Nc2ccccc21
inactive: dose: 50.0 mg/kg/injection, schedule: Q01DX009 (ip), vehicle: saline 103 % of control | dose: 100.0 mg/kg/injection, schedule: Q01DX009 (ip), vehicle: saline 100 % of control

O=C(COc1ccc(Cl)cc1C(=O)O)Nc1ccccc1
inactive: [14] 93 % of control | [15] 102 % of control | [16] 98 % of control

CCc1cccc(CC)c1N=C=Nc1c(CC)cccc1CC
inactive: dose: 100.0 mg/kg/injection, schedule: Q04DX003 (ip), vehicle: other 104 % of control | dose: 200.0 mg/kg/injection, schedule: Q04DX003 (ip), vehicle: other 100 % of control | dose: 400.0 mg/kg/injection, schedule: Q04DX003 (ip), vehicle: other 104 % of control

Cc1ccc(NC(=O)Oc2ccc(F)cc2)cc1NC(=O)Oc1ccc(F)cc1
inactive: dose: 25.0 mg/kg/injection, schedule: Q01DX009 (ip), vehicle: other 95 % of control | dose: 50.0 mg/kg/injection, schedule: Q01DX009 (ip), vehicle: other 95 % of control | dose: 100.0 mg/kg/injection, schedule: Q01DX009 (ip), vehicle: other 94 % of control and 100 % of control

Cc1ccc([N+](=O)[O-])cc1NC(=O)Cc1ccccc1
inactive: [17] 101 % of control | [18] 93 % of control | [19] 93 % of control

C1=CC2(C=C1)OC21CCC2(C=CC3(C2)OC3C2CCCCC2)CC1 (stereo unspecified)
inactive: [7] 94 % of control | [1] 94 % of control

Cc1cc(C)cc(OCCO)c1
inactive: [17] 97 % of control | [18] 102 % of control | [19] 91 % of control

CN(C)N=Nc1ccc(C(F)(F)F)cc1
inactive: dose: 50.0 mg/kg/injection, schedule: Q01DX001 (ip), vehicle: saline with Tween-80 97 % of control | [7] 94 % of control | dose: 50.0 mg/kg/injection, schedule: Q04DX003 (ip), vehicle: saline with Tween-80 98 % of control | [8] 103 % of control | [1] 94 % of control | [9] 98 % of control | [10] 105 % of control | [2] 97 % of control | [11] 101 % of control | [12] 101 % of control | [3] 98 % of control | [13] 98 % of control

COC1OC(COC(=O)c2ccccc2)C(OS(=O)(=O)c2ccc(C)cc2)C1OCc1ccccc1 (stereo unspecified)
inactive: dose: 50.0 mg/kg/injection, schedule: Q01DX001 (ip), vehicle: carboxymethylcellulose (CMC) 98 % of control | dose: 100.0 mg/kg/injection, schedule: Q01DX001 (ip), vehicle: carboxymethylcellulose (CMC) 93 % of control | dose: 200.0 mg/kg/injection, schedule: Q01DX001 (ip), vehicle: carboxymethylcellulose (CMC) 95 % of control | dose: 400.0 mg/kg/injection, schedule: Q01DX001 (ip), vehicle: carboxymethylcellulose (CMC) 95 % of control

COc1ccc(C(=O)CC(C#N)c2ccc(OC)c(OC)c2)cc1OC (stereo unspecified)
inactive: [1] 100 % of control | [2] 96 % of control | [3] 100 % of control

CC(C)OC(=O)C(NC=O)C(C)(C)S (stereo unspecified)
inactive: [9] 93 % of control | [11] 102 % of control | [13] 97 % of control

COc1cc(CCN2CCN(c3cc(C)ccc3Cl)CC2)cc(OC)c1OC
inactive: dose: 100.0 mg/kg/injection, schedule: Q01DX001 (ip), vehicle: other 93 % of control | dose: 200.0 mg/kg/injection, schedule: Q01DX001 (ip), vehicle: other 97 % of control | dose: 400.0 mg/kg/injection, schedule: Q01DX001 (ip), vehicle: other 97 % of control

Clc1cccc(NC(c2ccccc2)=[N+]2CCCCC2)c1
inactive: [17] 95 % of control | [18] 106 % of control | [19] 113 % of control

CCc1ccc(NC(=O)Nc2ccc(Cl)c(Cl)c2)cc1
inactive: [4] 90 % of control | [5] 103 % of control | [6] 103 % of control

O=c1cc(NCc2ccccc2Cl)[nH]c(=O)[nH]1
inactive: dose: 100.0 mg/kg/injection, schedule: Q01DX001 (ip), vehicle: gum acacia 93 % of control | dose: 200.0 mg/kg/injection, schedule: Q01DX001 (ip), vehicle: gum acacia 95 % of control | dose: 400.0 mg/kg/injection, schedule: Q01DX001 (ip), vehicle: gum acacia 101 % of control

O=C(Nc1ccccc1F)NC(CO)(CO)CO
inactive: [4] 97 % of control | [5] 98 % of control | [6] 95 % of control

O=[N+]([O-])c1cc(S(=O)(=O)OCC2CO2)ccc1Cl (stereo unspecified)
inactive: dose: 6.25 mg/kg/injection, schedule: Q04DX003 (ip), vehicle: Klucel (hydroxypropylcellulose) (HPC) 98 % of control | dose: 12.5 mg/kg/injection, schedule: Q01DX009 (ip), vehicle: Klucel (hydroxypropylcellulose) (HPC) 96 % of control | dose: 12.5 mg/kg/injection, schedule: Q04DX003 (ip), vehicle: Klucel (hydroxypropylcellulose) (HPC) 98 % of control | dose: 25.0 mg/kg/injection, schedule: Q01DX009 (ip), vehicle: Klucel (hydroxypropylcellulose) (HPC) 90 % of control | dose: 25.0 mg/kg/injection, schedule: Q04DX003 (ip), vehicle: Klucel (hydroxypropylcellulose) (HPC) 101 % of control | dose: 50.0 mg/kg/injection, schedule: Q04DX003 (ip), vehicle: Klucel (hydroxypropylcellulose) (HPC) 103 % of control
